This assay deals with Rat islets. Description: Glucolipotoxicity-induced apoptosis in rat islets, cell death ELISA. Format: cell-based. To be noted: 10 μM, 0.5 mM palmitate and 25 mM glucose, 60 h. As for the experimental part:
Rat islets (50 islets/well) were cultured in 48-well plates (NUNC) and exposed to palmitate (0.5 mM) and glucose (25 mM) in medium supplemented with 1% FBS and 1% BSA for 60 hours. Cell death was determined in biological duplicates using a cell death ELISA assay (Roche).
Compounds of the invention protect against combined palmitate and high glucose induced apoptosis in INS-1E cells. […] Apoptosis was measured by caspase-3 activity assay.
(ELISA stands for enzyme-linked immunosorbent assay.)

For the molecule `CC(=O)Nc1ccc(C(=O)Nc2ccc(F)cc2N)cc1` [Compound 1, 4-acetamido-N-(2-amino-4-fluorophenyl)benzamide], the “glucolipotoxicity-induced apoptosis in rat islets” value is on record as “decreases glucolipotoxicity-induced apoptosis in rat islets”.

The values are drawn from patent US11377423B2, “Inhibitors of histone deacetylase” (The Broad Institute, Inc., priority 2012, dated 2022).
